Laboratory results taken from the NIST ThermoML archive (doi:10.1021/je7003758).
Numbers after ± are expanded uncertainties.

Experiment: xn = mol fraction of the nth substance listed
Settings: 298.15 K, Liquid

CCCCCl [1-chlorobutane] + CN1CCCC1=O
mass density [kg/m3]
Settings	x2 = 0.1004	x2 = 0.2002	x2 = 0.2974	x2 = 0.4	x2 = 0.5052	x2 = 0.6019	x2 = 0.7039	x2 = 0.8011	x2 = 0.9002
100 kPa	896.6 ± 0.3	912 ± 0.2	926.8 ± 0.2	942.2 ± 0.2	957.5 ± 0.2	971.7 ± 0.2	986.2 ± 0.2	1000.1 ± 0.2	1014.3 ± 0.2
500 kPa	896.9 ± 0.3	–	927.1 ± 0.2	942.5 ± 0.2	957.8 ± 0.2	972 ± 0.2	986.5 ± 0.2	1000.4 ± 0.2	1014.5 ± 0.2
600 kPa	–	912.3 ± 0.3	–	–	–	–	–	–	–
1000 kPa	897.4 ± 0.3	912.7 ± 0.3	927.5 ± 0.2	942.8 ± 0.2	958.2 ± 0.2	972.2 ± 0.2	986.8 ± 0.2	1000.6 ± 0.2	1014.8 ± 0.2
1500 kPa	897.9 ± 0.3	913.2 ± 0.3	927.9 ± 0.2	943.2 ± 0.2	958.6 ± 0.2	972.6 ± 0.2	987.1 ± 0.2	1000.9 ± 0.2	1015.1 ± 0.2
2000 kPa	898.4 ± 0.3	913.6 ± 0.3	928.4 ± 0.2	943.6 ± 0.2	958.9 ± 0.2	973 ± 0.2	987.4 ± 0.2	1001.2 ± 0.2	1015.3 ± 0.2
2400 kPa	–	–	928.7 ± 0.3	–	–	973.3 ± 0.2	–	–	–
2500 kPa	898.9 ± 0.3	914.1 ± 0.3	–	944 ± 0.2	959.3 ± 0.2	–	987.7 ± 0.2	1001.6 ± 0.2	1015.6 ± 0.2
3000 kPa	899.3 ± 0.3	914.6 ± 0.3	929.2 ± 0.3	944.4 ± 0.2	959.6 ± 0.2	973.6 ± 0.2	988 ± 0.2	1001.8 ± 0.2	1015.9 ± 0.2
3500 kPa	899.8 ± 0.3	915 ± 0.3	929.6 ± 0.3	944.8 ± 0.2	960 ± 0.2	973.9 ± 0.2	988.4 ± 0.2	1002.2 ± 0.2	1016.2 ± 0.2
3900 kPa	–	–	–	–	–	974.2 ± 0.2	–	–	–
4000 kPa	900.3 ± 0.3	915.4 ± 0.3	930 ± 0.3	945.1 ± 0.2	960.3 ± 0.2	–	988.7 ± 0.2	1002.4 ± 0.2	1016.5 ± 0.2
4400 kPa	900.7 ± 0.3	–	–	–	–	–	–	–	1016.7 ± 0.2
4500 kPa	–	915.9 ± 0.3	930.4 ± 0.3	945.6 ± 0.2	960.7 ± 0.2	974.6 ± 0.2	989 ± 0.2	1002.7 ± 0.2	–
4900 kPa	901.2 ± 0.3	–	–	–	–	–	–	–	–
5000 kPa	–	916.3 ± 0.3	930.8 ± 0.3	945.9 ± 0.2	961.1 ± 0.2	–	989.3 ± 0.2	1003 ± 0.2	1017 ± 0.2
5100 kPa	–	–	–	–	–	975 ± 0.2	–	–	–
5400 kPa	901.7 ± 0.3	–	–	–	–	975.2 ± 0.2	–	–	–
5500 kPa	–	916.8 ± 0.3	931.2 ± 0.3	946.3 ± 0.3	961.4 ± 0.2	–	989.6 ± 0.2	1003.3 ± 0.2	1017.3 ± 0.2
5900 kPa	–	917.1 ± 0.3	–	–	–	–	–	–	–
6000 kPa	902.1 ± 0.3	–	931.7 ± 0.3	946.7 ± 0.3	961.8 ± 0.2	975.6 ± 0.2	990 ± 0.2	1003.6 ± 0.2	1017.6 ± 0.2
6500 kPa	902.6 ± 0.3	917.6 ± 0.3	932.1 ± 0.3	947.1 ± 0.3	962.2 ± 0.2	976 ± 0.2	990.2 ± 0.2	1003.9 ± 0.2	1017.8 ± 0.2
6900 kPa	903 ± 0.3	–	932.5 ± 0.3	–	–	–	–	–	–
7000 kPa	–	918.1 ± 0.3	–	947.5 ± 0.3	962.5 ± 0.2	976.3 ± 0.2	990.6 ± 0.2	1004.2 ± 0.2	1018.2 ± 0.2
7500 kPa	903.5 ± 0.3	918.5 ± 0.3	932.8 ± 0.3	–	962.9 ± 0.2	976.6 ± 0.2	990.9 ± 0.2	1004.5 ± 0.2	1018.4 ± 0.2
7600 kPa	–	–	–	948 ± 0.3	–	–	–	–	–
7900 kPa	903.9 ± 0.3	–	–	–	–	–	991.1 ± 0.2	–	–
8000 kPa	–	918.9 ± 0.3	933.3 ± 0.3	948.3 ± 0.3	963.2 ± 0.2	976.9 ± 0.2	–	1004.8 ± 0.2	1018.7 ± 0.2
8400 kPa	–	919.3 ± 0.3	–	–	–	–	–	–	–
8500 kPa	904.4 ± 0.3	–	933.6 ± 0.3	948.6 ± 0.3	963.6 ± 0.2	977.2 ± 0.2	991.5 ± 0.2	1005.1 ± 0.2	1019 ± 0.2
8900 kPa	–	919.7 ± 0.3	–	–	–	977.5 ± 0.2	991.7 ± 0.2	–	–
9000 kPa	904.9 ± 0.3	–	933.9 ± 0.3	949 ± 0.3	963.9 ± 0.2	–	–	1005.4 ± 0.2	1019.2 ± 0.2
9400 kPa	–	–	934.3 ± 0.3	–	–	–	992 ± 0.2	–	–
9500 kPa	905.3 ± 0.3	920.2 ± 0.3	–	949.3 ± 0.3	964.2 ± 0.2	977.9 ± 0.2	–	1005.6 ± 0.2	1019.5 ± 0.2
9900 kPa	–	–	934.8 ± 0.3	–	–	–	–	–	–
10000 kPa	905.8 ± 0.3	920.7 ± 0.3	–	949.8 ± 0.3	964.7 ± 0.2	978.3 ± 0.2	992.4 ± 0.2	–	1019.8 ± 0.2
10100 kPa	–	–	–	–	–	–	–	1006.1 ± 0.2	–
10400 kPa	–	–	–	950.1 ± 0.3	–	–	–	–	–
10500 kPa	–	921.1 ± 0.3	935.3 ± 0.3	–	965 ± 0.2	978.6 ± 0.2	992.7 ± 0.2	1006.3 ± 0.2	1020.1 ± 0.2
10600 kPa	906.4 ± 0.3	–	–	–	–	–	–	–	–
10900 kPa	906.7 ± 0.3	–	–	950.4 ± 0.3	–	–	–	–	–
11000 kPa	–	921.5 ± 0.3	935.6 ± 0.3	–	965.4 ± 0.2	978.9 ± 0.2	993 ± 0.2	1006.6 ± 0.2	1020.4 ± 0.2
11400 kPa	–	921.9 ± 0.3	–	–	–	–	993.3 ± 0.2	–	–
11500 kPa	907.2 ± 0.3	–	936 ± 0.3	950.8 ± 0.3	965.7 ± 0.2	979.3 ± 0.2	–	1006.8 ± 0.2	1020.6 ± 0.2
11900 kPa	–	–	936.3 ± 0.3	–	–	–	–	–	–
12000 kPa	907.6 ± 0.3	922.4 ± 0.3	–	951.2 ± 0.3	966 ± 0.2	979.6 ± 0.2	993.6 ± 0.2	1007.1 ± 0.2	1020.9 ± 0.2
12400 kPa	–	–	–	951.6 ± 0.3	–	979.8 ± 0.2	993.9 ± 0.2	–	–
12500 kPa	908.1 ± 0.3	922.8 ± 0.3	936.8 ± 0.3	–	966.4 ± 0.2	–	–	1007.4 ± 0.2	1021.1 ± 0.2
12900 kPa	–	–	–	–	–	–	–	1007.6 ± 0.2	–
13000 kPa	908.5 ± 0.3	923.2 ± 0.3	937.1 ± 0.3	951.9 ± 0.3	966.7 ± 0.2	980.2 ± 0.2	994.2 ± 0.2	–	1021.4 ± 0.3
13400 kPa	–	–	–	–	–	–	994.5 ± 0.2	–	–
13500 kPa	908.9 ± 0.3	923.6 ± 0.3	937.6 ± 0.3	952.3 ± 0.3	967 ± 0.3	–	–	1008 ± 0.2	1021.7 ± 0.3
13600 kPa	–	–	–	–	–	980.6 ± 0.2	–	–	–
13900 kPa	–	–	–	952.7 ± 0.3	–	–	–	–	–
14000 kPa	–	–	937.8 ± 0.3	–	967.4 ± 0.3	–	994.8 ± 0.2	1008.2 ± 0.2	1022 ± 0.3
14100 kPa	909.5 ± 0.3	924.1 ± 0.3	–	–	–	981 ± 0.2	–	–	–
14400 kPa	–	–	–	953 ± 0.3	967.7 ± 0.3	–	–	–	1022.2 ± 0.3
14500 kPa	909.8 ± 0.3	924.4 ± 0.3	938.2 ± 0.3	–	–	981.1 ± 0.2	995.1 ± 0.2	1008.5 ± 0.2	–
15000 kPa	910.2 ± 0.3	924.7 ± 0.3	938.6 ± 0.3	953.4 ± 0.3	968 ± 0.3	981.5 ± 0.2	–	1008.8 ± 0.2	1022.5 ± 0.3
15100 kPa	–	–	–	–	–	–	995.6 ± 0.2	–	–
15500 kPa	910.7 ± 0.3	925.2 ± 0.3	939 ± 0.3	953.8 ± 0.3	–	981.8 ± 0.2	995.7 ± 0.2	1009.1 ± 0.2	–
15600 kPa	–	–	–	–	968.5 ± 0.3	–	–	–	1022.8 ± 0.3
16000 kPa	911.1 ± 0.3	925.6 ± 0.3	939.4 ± 0.3	954.1 ± 0.3	968.7 ± 0.3	982.1 ± 0.2	996 ± 0.2	1009.3 ± 0.2	1023 ± 0.3
16400 kPa	–	926 ± 0.3	939.7 ± 0.3	–	–	982.4 ± 0.2	–	–	–
16500 kPa	911.5 ± 0.3	–	–	954.4 ± 0.3	969.1 ± 0.3	–	996.3 ± 0.2	1009.6 ± 0.2	1023.2 ± 0.3
16900 kPa	–	–	940.1 ± 0.3	–	–	–	–	–	–
17000 kPa	911.9 ± 0.3	926.3 ± 0.3	–	954.8 ± 0.3	969.4 ± 0.3	982.8 ± 0.2	996.6 ± 0.2	1009.9 ± 0.2	1023.4 ± 0.3
17400 kPa	–	–	940.5 ± 0.3	–	–	–	–	1010.2 ± 0.2	–
17500 kPa	912.3 ± 0.3	926.7 ± 0.3	–	955.2 ± 0.3	969.7 ± 0.3	983 ± 0.2	996.8 ± 0.2	–	1023.8 ± 0.3
18000 kPa	912.7 ± 0.3	927.1 ± 0.3	940.8 ± 0.3	–	970.1 ± 0.3	–	997.2 ± 0.2	1010.5 ± 0.2	1024 ± 0.3
18100 kPa	–	–	–	955.6 ± 0.3	–	983.4 ± 0.2	–	–	–
18500 kPa	913.1 ± 0.3	927.6 ± 0.3	–	955.8 ± 0.3	970.3 ± 0.3	983.6 ± 0.2	997.5 ± 0.2	–	1024.2 ± 0.3
18600 kPa	–	–	941.4 ± 0.3	–	–	–	–	1010.8 ± 0.2	–
19000 kPa	913.6 ± 0.3	928 ± 0.3	941.7 ± 0.3	956.2 ± 0.3	970.8 ± 0.3	984 ± 0.2	–	1011 ± 0.2	1024.5 ± 0.3
19100 kPa	–	–	–	–	–	–	997.9 ± 0.2	–	–
19400 kPa	913.9 ± 0.3	–	–	–	–	–	–	–	–
19500 kPa	–	928.3 ± 0.3	942.1 ± 0.3	956.6 ± 0.3	971 ± 0.3	984.3 ± 0.2	998 ± 0.2	1011.3 ± 0.2	1024.8 ± 0.3
20000 kPa	914.5 ± 0.3	928.7 ± 0.3	942.6 ± 0.3	957 ± 0.3	971.4 ± 0.3	984.6 ± 0.2	998.4 ± 0.2	1011.6 ± 0.2	1025.1 ± 0.3
